From patent publication US20220289685A1, “ANTIMALARIAL HEXAHYDROPYRIMIDINE ANALOGUES” (UCB BIOPHARMA SRL, priority 2019, published 2022)
Structures can show the parent of a compound that is named as a salt.

Each molecule was assayed on Plasmodium falciparum 3D7 strain (assay: P. falciparum 3D7 asexual blood stage assay (SYBR green readout)). Settings: Plasmodium falciparum, 3D7, Erythrocyte, 72 h.
Type: cell-based
Procedure: Asexual Blood Stage Assay
The assay used to measure the effect of test compounds on a bloodstream stage of Plasmodium falciparum: 3D7 strain employs SYBR green as the readout. This is a dye that binds to double stranded deoxyribonucleic acid (DNA) with a resulting increase in fluorescence, allowing detection of P. falciparum DNA in infected erythrocytes, and thereby providing a measure of parasite growth and propagation.
P. falciparum Culture Maintenance
Erythrocytes (A+ blood) were prepared for both parasite culture and assay by washing 4 times with incomplete media (15.9 g RPMI 1640 (25 mM HEPES, L-glutamine), 1 g NaHCO3, 2 g glucose, 400 μL gentacin (500 mg/mL), 2 mL hypoxanthine solution (13.6 g/L in 0.1M NaOH pH 7.3) in 1 litre of media). The cells were centrifuged at 1800 g for 5 minutes, before decanting the supernatant and re-suspending in fresh incomplete media. On the final wash, the cells were re-suspended in complete media (incomplete media with 5 g/L AlbumaxII), and centrifuged at 1800 g for 3 minutes. This cell sediment was treated as 100% haematocrit.
P. falciparum 3D7 was cultured in erythrocytes at 5% haematocrit in complete media at 37° C. (1% O2, 3% CO2, balance N2). Cultures were split on a weekly basis to achieve a 1% parasitaemia in erythrocites at 5% haematocrit in fresh media. Culture media is replaced by fresh media every other day (2 times during the week).
On day 1, test compounds were added to assay plates using Echo dispensing technology ([…] and 20 points titration). 50 nL of each compound dilution was added to 50 μL of culture (5% haematocrit, 0.5% parasitaemia) and incubated for 72 h at 37° C. (1% O2, 3% CO2, balance N2). Final concentrations of test compounds ranged from 50,000 nM to 15 nM, in […].
On day 4, 10 μL SYBR green (Invitrogen S7563 supplied as 10,000× concentrate in DMSO) pre-diluted to 3× concentrate with Lysis buffer (20 mM Tris pH 7.9, 5% EDTA, 0.16% w/v, 1.6% TX100 v/v) was added to the cultures and incubated in the dark, overnight, at room temperature.
On day 5, fluorescent signal was measured using a BioTek plate reader (excitation 485 nm, emission 528 nm). All data were processed using IDBS ActivityBase. Raw data were converted into percent inhibition through linear regression by setting the high inhibition control (mefloquine) as 100% and the no inhibition control (DMSO) as 0%. Quality control criteria for passing plates were as follows: Z′>0.5, S:B>3, 30% CV(no inhibition control)<15. The formula used to calculate Z′ is: […]
All EC50 curve fitting was undertaken using the following bi-phasic two site dose response using XLfit model 300 (IDBS):
where A=100 minus the top of the upper curve 1 and the bottom of lower curve; B=Hill slope; log(C)=IC50 concentration at lower site; log(D)=IC50 concentration at upper site; x=inhibitor concentration; and y=% inhibition.

Structure (SMILES) | IC50 [nM]
C[C@@H]1C[C@H](N2C(=N)N[C@](C)(c3cccc(NC(=O)c4cccnn4)c3Cl)CC2=O)CCO1 (relative stereo) [Example 19, N-(2-Chloro-3-{(4S)-2-imino-4-methyl-1-[(2R*,4R*)-2-methyl-tetrahydropyran-4-yl]-6-oxo-hexahydropyrimidin-4-yl]phenyl)-pyridazine-3-carboxamide hydrochloride] | 31
C[C@@]1(c2cccc(NC(=O)c3cccc(C#N)c3)c2Cl)CC(=O)N(C2CCC(F)(F)CC2)C(=N)N1 [Example 23, N-{2-Chloro-3-[(4S)-1-(4,4-difluorocyclohexyl)-2-imino-4-methyl-6-oxohexahydropyrimidin-4-yl]phenyl}-3-cyanobenzamide hydrochloride] | 68
COc1ccc(C#N)cc1C(=O)Nc1cccc([C@]2(C)CC(=O)N([C@@H]3CCO[C@H](C)C3)C(=N)N2)c1Cl (relative stereo) [Example 106, N-(2-Chloro-3-{(4S)-2-imino-4-methyl-1-[(2R*,4R*)-2-methyl-tetrahydropyran-4-yl]-6-oxo-hexahydropyrimidin-4-yl}phenyl)-5-cyano-2-methoxybenzamide hydrochloride] | 38
C[C@@H]1C[C@H](N2C(=N)N[C@](C)(c3cccc(NC(=O)c4ccc(F)c(F)c4)c3Cl)CC2=O)CCO1 (relative stereo) [Example 36, N-(2-Chloro-3-{(4S)-2-imino-4-methyl-1-[(2R*,4R*)-2-methyl-tetrahydropyran-4-yl]-6-oxo-hexahydropyrimidin-4-yl]phenyl)-3,4-difluorobenzamide trifluoroacetic acid salt] | 33
C[C@@H]1C[C@H](N2C(=N)N[C@](C)(c3cccc(NC(=O)c4ccc(F)cc4F)c3Cl)CC2=O)CCO1 (relative stereo) [Example 4, N-(2-Chloro-3-{(4S)-2-imino-4-methyl-1-[(2R*,4R*)-2-methyl-tetrahydropyran-4-yl]-6-oxo-hexahydropyrimidin-4-yl]phenyl)-2,4-difluorobenzamide hydrochloride] | 23
C[C@@H]1C[C@H](N2C(=N)N[C@](C)(c3cccc(NC(=O)c4nc5ccccc5nc4C(F)(F)F)c3Cl)CC2=O)CCO1 (relative stereo) [Example 88, N-(2-Chloro-3-{(4S)-2-imino-4-methyl-1-[(2R*,4R*)-2-methyl-tetrahydropyran-4-yl]-6-oxo-hexahydropyrimidin-4-yl]phenyl)-3-(trifluoromethyl)quinoxaline-2-carboxamide trifluoroacetic acid salt] | 46
C[C@@H]1C[C@H](N2C(=N)N[C@](C)(c3cccc(NC(=O)c4ccncc4)c3Cl)CC2=O)CCO1 (relative stereo) [Example 5, N-(2-Chloro-3-{(4S)-2-imino-4-methyl-1-[(2R*,4R*)-2-methyl-tetrahydropyran-4-yl]-6-oxo-hexahydropyrimidin-4-yl]phenyl)-pyridine-4-carboxamide hydrochloride] | 285
C[C@@H]1CC(N2C(=N)N[C@](C)(c3cccc(NC(=O)c4cccn5nnnc45)c3Cl)CC2=O)CCO1 (relative stereo) [Example 29, N-(2-Chloro-3-{(4S)-2-imino-4-methyl-1-[(2R*,4R*)-2-methyl-tetrahydropyran-4-yl]-6-oxo-hexahydropyrimidin-4-yl}phenyl)-tetrazolo[1,5-a] pyridine-8-carboxamide trifluoroacetic acid salt] | 23
C[C@@H]1C[C@H](N2C(=N)N[C@](C)(c3cccc(NC(=O)c4ccccc4Cl)c3Cl)CC2=O)CCO1 (relative stereo) [Example 12, 2-Chloro-N-(2-chloro-3-{(4S)-2-imino-4-methyl-1-[(2R*,4R*)-2-methyltetrahydropyran-4-yl]-6-oxo-hexahydropyrimidin-4-yl}phenyl)-benzamide hydrochloride] | 23
